Patent publication US20240252502A1, “HDAC6 INHIBITORS FOR TREATMENT OF METABOLIC DISEASE AND HFPEF” (Tenaya Therapeutics, Inc., priority 2021, published 2024)

System: HFD/L-NAME mice (HFpEF model)
Assay: HFD/L-NAME HFpEF mouse model, TYA-11018 versus Empagliflozin
Assay type: in vivo
Settings: 15 mg/kg TYA-11018 or 10 mg/kg Empagliflozin orally once daily for 9 weeks
Method: After HFpEF phenotypes were established, mice received 15 mg/kg TYA-11018 or 10 mg/kg Empagliflozin, or vehicle orally once daily for 9 weeks. Health monitoring was performed weekly with body weights recorded. Glucose tolerance test was performed after 1st dose. Cardiac function was recorded by echocardiography after treatment for 9 weeks. End diastolic pressure (EDP) was measured by PV-Loop at terminal at 9 weeks after dosing.
Animals: Cohort of mice with established HFpEF phenotypes and age/sex matched wild type controls were used for dosing study. […] After acclimation for 1 week, one group of mice was fed with high fat diet containing 0.07% L-NAME (LabDiet 5G5V, St Louis, MO) for 15 weeks. The control group of mice were fed with normal chow (LabDiet 5053, St Louis, MO). […] Animals were housed in an animal research facility in accordance with the National Research Council of the National Academies guidelines for the care and use of laboratory animals.
A second group of mice was fed with standard chow for controls.
Transthoracic echocardiography was performed using a VisualSonics Vevo 2100 system equipped with MS400 transducer (Visual Sonics, Toronto, ON). LVEF and other indices of systolic function were obtained from short-axis M-mode scans at the midventricular level, as indicated by the presence of papillary muscles, in conscious, gently restrained mice. […]
Intraperitoneal glucose-tolerance tests were performed by injection of glucose (2 g/kg in saline) after 6 hour fasting (from 7 a.m. to 1 p.m.). Tail blood glucose levels (mg/dL) were measured by AimStrip Plus blood glucose strips used with the AimStrip Plus blood glucose monitoring system (Germaine Laboratories, San Antonio, TX) at 0 (baseline, before glucose dose), 15, 30, 45, 60 and 120 minutes after glucose administration.
The trachea was exposed by a midline incision from the base of the throat to just above the clavicle. […] The hemodynamic parameters were then recorded in close-chest mode. […]

Compound: OC[C@H]1O[C@@H](c2ccc(Cl)c(Cc3ccc(O[C@H]4CCOC4)cc3)c2)[C@H](O)[C@@H](O)[C@@H]1O [Empagliflozin, empagliflozin]
- E/A: decreased
- E/e′ ratio: decreased
- end diastolic pressure (PV-Loop): reduced end diastolic pressure
